Measured values taken from article PMC6842385, “Identifying new topoisomerase II poison scaffolds by combining publicly available toxicity data and 2D/3D-based virtual screening” (Journal of Cheminformatics, 2019).

Tested on: T1, Top2
T1 construct: gene TOP2A; Top2 used in TopoGEN decatenation assay
Test: kDNA decatenation assay, agarose gel
Type: biochemical
Settings: kinetoplast DNA 0.2 μg in 20 μl, 5 mM ATP, 10 mM MgCl2, 150 mM NaCl, pH 8.0, 37 °C, 30 min
From the text: kDNA decatenation assay, agarose gel on Top2

Row | SMILES | IC50 [µM] | IC50 (positive control) [µM]
1 | O=C1c2c(O)ccc(O)c2C(=O)c2c(NCCNCCO)ccc(NCCNCCO)c21 [compound 301739, mitoxantrone] |  | 3.3
2 | COc1cccc2c(N)c3cccc(C(=O)NCCN(C)C)c3nc12 [compound 691240, NSC691240] | 12.1 | 
3 | CCN(CC)CCNc1ccc2ncn3c4c(OC)ccc(OC)c4c(=O)c1c23 [compound 660839, NSC660839] | > 100 | 

Further molecules by falling IC50, results first:

Row | IC50 [µM] | SMILES | IC50 (positive control) [µM]
4 | 7.5 | CCN(CC)CCNc1ccc(C)c2sc3ccc(O)cc3c(=O)c12 [compound 317921, NSC317921] | 
5 | 3.3 | CCN(CC)CCNc1ccc2nc(C)n3c4ccc(O)cc4c(=O)c1c23 [compound 637992, NSC637992] | 
